Test results reported in paper PMC7066280 (Investigational New Drugs, 2019).
Like-named read-outs stand apart in the source and are kept apart here.

How the values were obtained:
Type in all cases: in vivo, human
[1] = Ivosidenib plasma PK after single and multiple 500 mg QD doses (dose expansion); details: human, plasma, oral, 500 mg
Description: (§1) Additional predose samples were taken on cycle 1, day 8; cycle 1, day 15; cycle 3, day 1; and end of treatment.
(§2) Plasma ivosidenib was measured using two validated liquid chromatography-tandem mass spectrometry (LC-MS/MS) methods. The lower limit of quantification (LLOQ) was 1.00 ng/mL (low-range assay) or 50.0 ng/mL (high-range assay). […] Plasma 2-HG concentrations were measured using a qualified LC-MS/MS method with an LLOQ of 30.0 ng/mL. Concentrations of 2-HG in tumor biopsy samples were quantified using qualified LC-MS/MS methods with an LLOQ of 7.5 μg/g for brain tumor homogenate, 100 ng/g for liver tumor homogenate (low-range assay), and 30 μg/g for liver tumor homogenate (high-range assay). Plasma 4β-OHC and cholesterol were measured using a validated LC-MS/MS method. The LLOQ was 5 ng/mL for 4β-OHC and 25 μg/mL for cholesterol in human plasma.
(§3) PK parameters included area under the plasma concentration-time curve (AUC), maximum plasma concentration (Cmax), time to maximum plasma concentration (Tmax), terminal elimination half-life (t1/2), and apparent oral clearance at steady state (CLss/F). Accumulation ratio (Racc), based on Cmax and AUC, was also assessed during the dose escalation portion. PD (2-HG) parameters included baseline-effect value, area under the effect concentration-time curve (AUEC0-10h for the dose escalation portion, or AUEC0-8h for the dose escalation and expansion portions), percent change from baseline in AUEC (%BAUEC0-10h for the escalation portion, or %BAUEC0-8h for the dose escalation and expansion portions), average plasma concentration (Cavg), and percent inhibition for Cavg (%BCavg). For the dose escalation portion, the time-matched ratios of 4β-OHC to cholesterol were calculated.

[2] = Dose proportionality assessment of AUC and Cmax (power model)
Description: Dose proportionality after multiple dosing was tested using data from the QD dose regimens without the 100 mg BID dose group. To assess dose proportionality, the confidence interval (CI) for the slope was estimated, with each natural logarithm (ln)-transformed PK parameter as the dependent variable and the ln-transformed dose as the fixed effect. Analysis was performed using PK parameter estimates at day −3, cycle 1, day 15, and cycle 2, day 1. Dose proportionality was concluded if the 95% CI around the slope included 1 and if the slope was between 0.8 and 1.2 (inclusive).

plasma 2-HG = assay: Plasma 2-HG pharmacodynamics in patients with IDH1-mutant tumors
Description: These samples were optional for any further patients enrolled in these cohorts. Further blood samples were collected from all patients up to 10 h postdose on cycle 1, day 15 and cycle 2, day 1. A subset of samples was also used for evaluation of plasma 4β-hydroxycholesterol (4β-OHC) and 4β-OHC:cholesterol ratios. Blood samples for assessment of 2-HG only were also collected at screening.
as §1, §2, §3

N#Cc1ccnc(N2C(=O)CC[C@H]2C(=O)N(c2cncc(F)c2)[C@H](C(=O)NC2CC(F)(F)C2)c2ccccc2Cl)c1 [ivosidenib]
Cmax ([1]; expansion cholangiocarcinoma, cycle 1 day 1, geometric mean (geometric CV%)): 3.67 µg/mL | AUC(0-t) ([1]; expansion cholangiocarcinoma, cycle 1 day 1, geometric mean (geometric CV%), read-out: AUC0-8hr): 19.7 µg·h/mL | Tmax ([1]; expansion cholangiocarcinoma, cycle 1 day 1, median (minimum; maximum)): 3.08 h | Cmax ([1]; expansion cholangiocarcinoma, cycle 2 day 1, geometric mean (geometric CV%)): 4.58 µg/mL | AUC(0-t) ([1]; expansion cholangiocarcinoma, cycle 2 day 1, geometric mean (geometric CV%), read-out: AUC0-8hr): 29 µg·h/mL | AUC(0-t) ([1]; expansion cholangiocarcinoma, cycle 2 day 1, geometric mean (geometric CV%), read-out: AUC0-24hr): 75.6 µg·h/mL | Tmax ([1]; expansion cholangiocarcinoma, cycle 2 day 1, median (minimum; maximum)): 2.03 h | Cmax ([1]; expansion chondrosarcoma, cycle 1 day 1, geometric mean (geometric CV%)): 4.26 µg/mL | AUC(0-t) ([1]; expansion chondrosarcoma, cycle 1 day 1, geometric mean (geometric CV%), read-out: AUC0-8hr): 22.9 µg·h/mL | Tmax ([1]; expansion chondrosarcoma, cycle 1 day 1, median (minimum; maximum)): 2.98 h | Cmax ([1]; expansion chondrosarcoma, cycle 2 day 1, geometric mean (geometric CV%)): 5.3 µg/mL | AUC(0-t) ([1]; expansion chondrosarcoma, cycle 2 day 1, geometric mean (geometric CV%), read-out: AUC0-8hr): 36.2 µg·h/mL | AUC(0-t) ([1]; expansion chondrosarcoma, cycle 2 day 1, geometric mean (geometric CV%), read-out: AUC0-24hr): 88.7 µg·h/mL | Tmax ([1]; expansion chondrosarcoma, cycle 2 day 1, median (minimum; maximum)): 2.08 h | Cmax ([1]; expansion enhancing glioma, cycle 1 day 1, geometric mean (geometric CV%)): 3.14 µg/mL | AUC(0-t) ([1]; expansion enhancing glioma, cycle 1 day 1, geometric mean (geometric CV%), read-out: AUC0-8hr): 16 µg·h/mL | Tmax ([1]; expansion enhancing glioma, cycle 1 day 1, median (minimum; maximum)): 3.01 h | Cmax ([1]; expansion enhancing glioma, cycle 2 day 1, geometric mean (geometric CV%)): 3.8 µg/mL | AUC(0-t) ([1]; expansion enhancing glioma, cycle 2 day 1, geometric mean (geometric CV%), read-out: AUC0-8hr): 24.4 µg·h/mL | AUC(0-t) ([1]; expansion enhancing glioma, cycle 2 day 1, geometric mean (geometric CV%), read-out: AUC0-24hr): 62.6 µg·h/mL | Tmax ([1]; expansion enhancing glioma, cycle 2 day 1, median (minimum; maximum)): 2.03 h | Cmax ([1]; expansion non-enhancing glioma, cycle 1 day 1, geometric mean (geometric CV%)): 2.79 µg/mL | AUC(0-t) ([1]; expansion non-enhancing glioma, cycle 1 day 1, geometric mean (geometric CV%), read-out: AUC0-8hr): 14.9 µg·h/mL | Tmax ([1]; expansion non-enhancing glioma, cycle 1 day 1, median (minimum; maximum)): 2.58 h | Cmax ([1]; expansion non-enhancing glioma, cycle 2 day 1, geometric mean (geometric CV%)): 3.54 µg/mL | AUC(0-t) ([1]; expansion non-enhancing glioma, cycle 2 day 1, geometric mean (geometric CV%), read-out: AUC0-8hr): 22.2 µg·h/mL | AUC(0-t) ([1]; expansion non-enhancing glioma, cycle 2 day 1, geometric mean (geometric CV%), read-out: AUC0-24hr): 55.7 µg·h/mL | Tmax ([1]; expansion non-enhancing glioma, cycle 2 day 1, median (minimum; maximum)): 3.05 h | Cmax ([1]; expansion other solid tumors, cycle 1 day 1, geometric mean (geometric CV%)): 2.29 µg/mL | AUC(0-t) ([1]; expansion other solid tumors, cycle 1 day 1, geometric mean (geometric CV%), read-out: AUC0-8hr): 13.8 µg·h/mL | Tmax ([1]; expansion other solid tumors, cycle 1 day 1, median (minimum; maximum)): 2.55 h | Cmax ([1]; expansion other solid tumors, cycle 2 day 1, geometric mean (geometric CV%)): 4.13 µg/mL | AUC(0-t) ([1]; expansion other solid tumors, cycle 2 day 1, geometric mean (geometric CV%), read-out: AUC0-8hr): 25.1 µg·h/mL | AUC(0-t) ([1]; expansion other solid tumors, cycle 2 day 1, geometric mean (geometric CV%), read-out: AUC0-24hr): 62.2 µg·h/mL | Tmax ([1]; expansion other solid tumors, cycle 2 day 1, median (minimum; maximum)): 1.98 h | Cmax ([1]; expansion overall, cycle 1 day 1, geometric mean (geometric CV%)): 3.31 µg/mL | AUC(0-t) ([1]; expansion overall, cycle 1 day 1, geometric mean (geometric CV%), read-out: AUC0-8hr): 17.6 µg·h/mL | Tmax ([1]; expansion overall, cycle 1 day 1, median (minimum; maximum)): 3 h | Cmax ([1]; expansion overall, cycle 2 day 1, geometric mean (geometric CV%)): 4.21 µg/mL | AUC(0-t) ([1]; expansion overall, cycle 2 day 1, geometric mean (geometric CV%), read-out: AUC0-8hr): 26.6 µg·h/mL | AUC(0-t) ([1]; expansion overall, cycle 2 day 1, geometric mean (geometric CV%), read-out: AUC0-24hr): 68.5 µg·h/mL | Tmax ([1]; expansion overall, cycle 2 day 1, median (minimum; maximum)): 2.14 h | increase in ivosidenib exposure for a doubling of dose ([2]; patients with glioma): ~40% | increase in ivosidenib exposure for a doubling of dose ([2]; patients with non-glioma solid tumors): ~70% | plasma 2-HG reduction (plasma 2-HG; after multiple doses, patients with cholangiocarcinoma or chondrosarcoma): up to 98% | plasma 2-HG inhibition compared with baseline (plasma 2-HG; after one week of continuous dosing, cholangiocarcinoma and chondrosarcoma): up to 98% | plasma 2-HG mean Cavg percent inhibition (BCavg%) (plasma 2-HG; cholangiocarcinoma, 500 mg multiple dose, cycle 1 day 15): 79% | plasma 2-HG mean Cavg percent inhibition (BCavg%) (plasma 2-HG; cholangiocarcinoma, 500 mg multiple dose, cycle 2 day 1): 80% | plasma 2-HG mean Cavg percent inhibition (BCavg%) (plasma 2-HG; cholangiocarcinoma, single dose, 500 mg): 46% | plasma 2-HG mean Cavg percent inhibition (BCavg%) (plasma 2-HG; chondrosarcoma, 500 mg multiple dose, cycle 1 day 15): 54% | plasma 2-HG mean Cavg percent inhibition (BCavg%) (plasma 2-HG; chondrosarcoma, 500 mg multiple dose, cycle 2 day 1): 59% | plasma 2-HG mean Cavg percent inhibition (BCavg%) (plasma 2-HG; chondrosarcoma, single dose, 500 mg): 30%
